Measurements: US7897750B2, “Strategies for gene expression analysis” (Althea Technologies, Inc., priority 2002, dated 2011)

System: HepG2 cells
Assay: Multiplex rtPCR gene expression time course (15-plex) in treated cells
Type: cell-based
Details: 5×10^4 HepG2 cells, 25 μM, timepoints T=0, 2, 4, 8, 24, 48, 120 hours, triplicate, FIG. 9
Experimental: Cells were treated in triplicate and timepoints were collected at T=0, 2, 4, 8, 24, 48, and 120 hours. RNA was isolated using Qiagen's RNeasy kit for 96 well plates and the concentration was monitored using a Ribogreen Assay (Molecular Probes). The concentration of RNA from each sample was normalized to 5 ng/μl. rtPCR was carried out using 25 ng of RNA from each sample and the products were analyzed using an ABI 3100 Genetic Analyzer. Gene expression is expressed as a ratio to that of GAPDH. The multiplex included the following list of genes.
CV's for all genes and data points within the experiment ranged from a few percent to 20%.

CC[C@H]1CN2CCc3cc(OC)c(OC)cc3[C@@H]2C[C@@H]1C[C@H]1NCCc2cc(OC)c(OC)cc21 [emitine]
GRO1 gene expression, ratio to that of GAPDH: clear trends of induction | Il-8 gene expression, ratio to that of GAPDH: clear trends of induction
